The numbers were not newly measured in patent US20240293435A1, “Methods and Compositions for Treating Human Disorders Using D-Cycloserine and a Psychedelic Agent” (William & Mary, priority 2023, published 2024), which cites them from elsewhere.

By half-life is commonly meant the time in which the quantity being followed falls by half.

In data set [1] the test system is Mycobacterium tuberculosis strains. The following applies: typical Mycobacterium tuberculosis strains.

As for `N[C@@H]1CON=C1O` [DCS, 3-Isoxazolidinone, 4-amino-, (4R)-(9CI)], the “minimum inhibitory concentrations (MIC) in vitro” value in data set [1] was 6 to 25 µg/mL. In addition, the “serum concentrations generally maintained” value (dose of 500 mg/day, chronic treatment) is 25 to 30 µg/mL. Moreover, for the setting “oral capsules”, the half-life was 10 h and the “time to peak serum concentrations after dosing” value is 3 to 8 h. For the same molecule, the “benefit on Alzheimer's Disease” value with Alzheimer's Disease (daily administration of 100 mg (Tsai et al. 1999)) was “positive benefit”. Moreover, in the data set on Alzheimer's Disease (up to 50 mg daily dosing, multi-center 410-patient trial (Fakouhi et al. 1995)), the “benefit for treatment of Alzheimer's Disease” value is listed as “did not have a significant benefit”.
